# Data taken from patent publication US20240376163A1, “PEPTIDE FOR INHIBITING CALCINEURIN AND USE THEREOF” (Seoul National University R&DB Foundation, priority 2023, published 2024).
# Test system: Jurkat T cells
# Experiment: mRNA sequencing of activated Jurkat T cells
# Assay type: cell-based, human
# Conditions: Jurkat T cells, P + I
smiles,measurement,value
"C=CC[C@@H]1/C=C(\C)C[C@H](C)C[C@H](OC)[C@H]2O[C@@](O)(C(=O)C(=O)N3CCCC[C@H]3C(=O)O[C@H](/C(C)=C/[C@@H]3CC[C@@H](O)[C@H](OC)C3)[C@H](C)[C@@H](O)CC1=O)[C@H](C)C[C@@H]2OC [FK506, Tacrolimus, reference compound]",ABTB2 FPKM,2.549 FPKM
same,ACAP1 FPKM,35.261 FPKM
same,ACSF3 FPKM,22.755 FPKM
same,ADA FPKM,74.531 FPKM
same,ADAMTS17 FPKM,0.843 FPKM
same,ADCYAP1 FPKM,3.646 FPKM
same,ADORA2A FPKM,0.998 FPKM
same,AFF2 FPKM,4.374 FPKM
same,AGK FPKM,14.029 FPKM
same,ALDH1A2 FPKM,7.041 FPKM
same,ALOX5AP FPKM,92.971 FPKM
same,ANKEF1 FPKM,3.081 FPKM
same,ANO8 FPKM,3.26 FPKM
same,ANTXR2 FPKM,53.159 FPKM
same,APH1B FPKM,5.12 FPKM
same,APOBEC3B-AS1 FPKM,13.251 FPKM
same,APOBEC3F FPKM,5.861 FPKM
same,APOBEC3G FPKM,8.803 FPKM
same,APOL1 FPKM,4.036 FPKM
same,ARHGAP4 FPKM,15.97 FPKM
same,ARHGAP25 FPKM,3.447 FPKM
same,ARHGAP31 FPKM,10.889 FPKM
same,ARHGEF3 FPKM,8.637 FPKM
same,ARPP21 FPKM,1.29 FPKM
same,ASB13 FPKM,2.277 FPKM
same,ASNS FPKM,20.436 FPKM
same,ATHL1 FPKM,4.597 FPKM
same,ATP2A3 FPKM,47.81 FPKM
same,ATP6V0A4 FPKM,21.385 FPKM
same,ATP6V1B2 FPKM,50.672 FPKM
same,ATPAF1 FPKM,11.764 FPKM
same,AVPR2 FPKM,1.21 FPKM
same,B2M FPKM,1155.981 FPKM
same,BAHCC1 FPKM,1 FPKM
same,BCL2A1 FPKM,21.118 FPKM
same,BCL2L1 FPKM,39.402 FPKM
same,BCL3 FPKM,14.57 FPKM
same,BCL6 FPKM,15.181 FPKM
same,BCL7A FPKM,12.185 FPKM
same,BCL11B FPKM,3.688 FPKM
same,BEND6 FPKM,1.416 FPKM
same,BIN1 FPKM,2.374 FPKM
same,BIRC3 FPKM,30.767 FPKM
same,C10orf55 FPKM,7.632 FPKM
same,C11orf74 FPKM,0.365 FPKM
same,C21orf58 FPKM,5.847 FPKM
same,CABP1 FPKM,1.201 FPKM
same,CAMK2D FPKM,5.855 FPKM
same,CARHSP1 FPKM,20.082 FPKM
same,CBFA2T3 FPKM,12.236 FPKM
same,CBLB FPKM,8.881 FPKM
same,CBS FPKM,3.935 FPKM
same,CBX2 FPKM,2.786 FPKM
same,CCDC15 FPKM,3.535 FPKM
same,CCL3 FPKM,0 FPKM
same,CCL3L3 FPKM,0 FPKM
same,CCL20 FPKM,0 FPKM
same,CCND3 FPKM,30.402 FPKM
same,CCNE2 FPKM,6.298 FPKM
same,CD1B FPKM,4.115 FPKM
same,CD1E FPKM,4.975 FPKM
same,CD70 FPKM,3.005 FPKM
same,CD82 FPKM,171.933 FPKM
same,CD97 FPKM,19.394 FPKM
same,CD200 FPKM,0 FPKM
same,CD274 FPKM,7.13 FPKM
same,CDKN1A FPKM,39.264 FPKM
same,CDKN2D FPKM,17.642 FPKM
same,CECR1 FPKM,5.304 FPKM
same,CENPM FPKM,13.201 FPKM
same,CEP70 FPKM,14.887 FPKM
same,CERKL FPKM,13.458 FPKM
same,CFLAR FPKM,3.438 FPKM
same,CHEK2 FPKM,8.907 FPKM
same,CHPF2 FPKM,36.42 FPKM
same,CHPF FPKM,9.759 FPKM
same,CHRNA3 FPKM,4.293 FPKM
same,CHST12 FPKM,13.527 FPKM
same,CNN2 FPKM,30.77 FPKM
same,COL27A1 FPKM,4.463 FPKM
same,CPD FPKM,23.208 FPKM
same,CREB3L2 FPKM,5.62 FPKM
same,CREB5 FPKM,0.577 FPKM
same,CSF1 FPKM,1.706 FPKM
same,CSF2 FPKM,0 FPKM
same,CXCL8 FPKM,0.937 FPKM
same,CXCL11 FPKM,0.695 FPKM
same,CXCR4 FPKM,38.979 FPKM
same,CYTH1 FPKM,33.17 FPKM
same,DBP FPKM,2.396 FPKM
same,DCBLD2 FPKM,13.786 FPKM
same,DENND5A FPKM,24.792 FPKM
same,DNAJB5 FPKM,19.238 FPKM
same,DSTYK FPKM,3.501 FPKM
same,DTL FPKM,5.862 FPKM
same,DTX1 FPKM,4.414 FPKM
same,DUSP6 FPKM,9.728 FPKM
same,DUSP10 FPKM,11.981 FPKM
same,E2F7 FPKM,4.531 FPKM
same,ECE1 FPKM,20.046 FPKM
same,EFHD2 FPKM,180.233 FPKM
same,EGR1 FPKM,218.444 FPKM
same,EGR2 FPKM,11.435 FPKM
same,EHBP1L1 FPKM,7.073 FPKM
same,EMP1 FPKM,4.613 FPKM
same,ETS1 FPKM,50.032 FPKM
same,FADS2 FPKM,67.903 FPKM
same,FAM64A FPKM,7.456 FPKM
same,FAT1 FPKM,13.036 FPKM
same,FBLN2 FPKM,3.348 FPKM
same,FKBP5 FPKM,8.687 FPKM
same,FLI1 FPKM,13.241 FPKM
same,FOSL1 FPKM,10.499 FPKM
same,FOSL2 FPKM,2.204 FPKM
same,FXYD5 FPKM,41.346 FPKM
same,FYN FPKM,16.523 FPKM
same,GAD1 FPKM,2.246 FPKM
same,GFOD1 FPKM,4.187 FPKM
same,GFRA1 FPKM,0.991 FPKM
same,GKAP1 FPKM,2.692 FPKM
same,GLRB FPKM,1.62 FPKM
same,GLRX FPKM,25.315 FPKM
same,GNG4 FPKM,5.365 FPKM
same,GPC2 FPKM,5.785 FPKM
same,GPR17 FPKM,0.258 FPKM
same,GPR68 FPKM,8.916 FPKM
same,GSE1 FPKM,17.37 FPKM
same,GTDC1 FPKM,4.629 FPKM
same,GXYLT2 FPKM,5.443 FPKM
same,GZMB FPKM,513.528 FPKM
same,HCAR1 FPKM,7.167 FPKM
same,HIVEP3 FPKM,20.041 FPKM
same,HLA-A FPKM,181.069 FPKM
same,HLA-B FPKM,116.079 FPKM
same,HPGD FPKM,6.064 FPKM
same,IFIT3 FPKM,6.495 FPKM
same,IKZF2 FPKM,8.561 FPKM
same,IL2 FPKM,0.287 FPKM
same,IL4R FPKM,9.842 FPKM
same,IL10RA FPKM,2.828 FPKM
same,IL15 FPKM,2.654 FPKM
same,IL15RA FPKM,5.979 FPKM
same,IL21R FPKM,2.244 FPKM
same,IL21R-AS1 FPKM,1.927 FPKM
same,IL27RA FPKM,10.817 FPKM
same,IQCJ-SCHIP1 FPKM,1.657 FPKM
same,IQGAP2 FPKM,4.857 FPKM
same,IRF1 FPKM,141.607 FPKM
same,IRF2 FPKM,34.99 FPKM
same,IRF4 FPKM,0.423 FPKM
same,IRF7 FPKM,21.167 FPKM
same,ITGA4 FPKM,39.099 FPKM
same,ITGAL FPKM,10.212 FPKM
same,ITK FPKM,58.558 FPKM
same,JAK2 FPKM,5.248 FPKM
same,KCNK1 FPKM,10.967 FPKM
same,KIAA0101 FPKM,21.727 FPKM
same,KIAA0247 FPKM,8.032 FPKM
same,KIR3DX1 FPKM,3.048 FPKM
same,KLF10 FPKM,25.627 FPKM
same,KLF12 FPKM,6.506 FPKM
same,KREMEN1 FPKM,3.122 FPKM
same,LAIR1 FPKM,8.298 FPKM
same,LDLRAD4 FPKM,6.21 FPKM
same,LEF1-AS1 FPKM,3.747 FPKM
same,LEF1 FPKM,74.102 FPKM
same,LGMN FPKM,1.42 FPKM
same,LIF FPKM,0.143 FPKM
same,LIMS2 FPKM,4.122 FPKM
same,LINC00659 FPKM,10.239 FPKM
same,LINC01260 FPKM,7.672 FPKM
same,LMNA FPKM,4.62 FPKM
same,LMO1 FPKM,1.094 FPKM
same,LOC653712 FPKM,4.163 FPKM
same,LOC100506688 FPKM,1.625 FPKM
same,LOC101926963 FPKM,4.541 FPKM
same,LOC101927497 FPKM,9.413 FPKM
same,LPAR6 FPKM,8.449 FPKM
same,LRRC8C FPKM,10.058 FPKM
same,LRRC20 FPKM,3.843 FPKM
same,LTBP4 FPKM,8.427 FPKM
same,LUCATI FPKM,12.516 FPKM
same,MAFF FPKM,16.977 FPKM
same,MAGEA4 FPKM,3.908 FPKM
same,MAL FPKM,2.664 FPKM
same,MAMLD1 FPKM,5.995 FPKM
same,MAP3K7CL FPKM,2.247 FPKM
same,MAST4 FPKM,3.498 FPKM
same,MAZ FPKM,112.102 FPKM
same,MCM2 FPKM,22.07 FPKM
same,MCTP2 FPKM,5.326 FPKM
same,METRN FPKM,1.779 FPKM
same,MFAP4 FPKM,0.663 FPKM
same,MGAT4A FPKM,8.906 FPKM
same,MICAL2 FPKM,1.763 FPKM
same,MIR22HG FPKM,9.248 FPKM
same,MIR3652 FPKM,547.182 FPKM
same,MIR6775 FPKM,19.643 FPKM
same,MIR6821 FPKM,13.626 FPKM
